According to publication PMC9851200, “Multiparameter phenotypic screening for endogenous TFEB and TFE3 translocation identifies novel chemical series modulating lysosome function” (Autophagy, 2022):
Like-named read-outs stand apart in the source and are kept apart here.

Columns and labels:
SH-SY5Y cells [1] = test system: SH-SY5Y cells; also: reference of the scale not given here
SH-SY5Y cells [2] = assay: AK (adenylate kinase) release ToxiLight cytotoxicity assay; also: reference of the scale not given here
endogenous TFE3 = assay: TFE3 nuclear translocation, immunocytochemistry high-content imaging; assay type: cell-based
endogenous TFEB = assay: TFEB nuclear translocation, immunocytochemistry high-content imaging; assay type: cell-based
SH-SY5Y cells [3] = assay: Nuclear count from microscopy images (cellular growth and toxicity); also: reference of the scale not given here
[4] = PKIS2 primary screening, DQ Red BSA intensity
[5] = PKIS2 primary screening, DQ Red BSA spot count

| Compound | DQ Intensity (SH-SY5Y cells [1]; [4]) | DQ Spot (SH-SY5Y cells [1]; [5]) | AK (SH-SY5Y cells [2]; PKIS2 primary screening) | TFE3 % (endogenous TFE3; PKIS2 primary screening) | TFEB % (endogenous TFEB; PKIS2 primary screening) | Nuclear Count (SH-SY5Y cells [3]; PKIS2 primary screening) | DQ Intensity (SH-SY5Y cells [1]; PKIS2 primary screening) | DQ Spot (SH-SY5Y cells [1]; PKIS2 primary screening) | DQ Intensity (SH-SY5Y cells [1]; PKIS2 primary screen, DQ Red BSA intensity) | DQ Spot (SH-SY5Y cells [1]; PKIS2 primary screen, DQ Red BSA spot count) | AK (SH-SY5Y cells [2]; PKIS2 primary screen) | TFE3 % (endogenous TFE3; PKIS2 primary screen) | TFEB % (endogenous TFEB; PKIS2 primary screen) | Nuclear Count (SH-SY5Y cells [3]; PKIS2 primary screen) |
| --- | --- | --- | --- | --- | --- | --- | --- | --- | --- | --- | --- | --- | --- | --- |
| O=C(NCCCN1CCOCC1)c1cccc(Nc2nccc(Nc3ccc(Oc4ccccc4)cc3)n2)c1 [GW663929] | 88.80 | 80.91 | 108.46 | 16.30% | 4.62% | 103.04 |  |  |  |  |  |  |  |  |
| COC(=O)Nc1nc2ccc(Oc3ccc(CC(=O)Nc4cc(C(F)(F)F)ccc4F)cc3)cc2[nH]1 [GW680903] | 59.92 | 85.78 | 72.57 | 12.77% | 2.10% | 109.57 |  |  |  |  |  |  |  |  |
| COC(=O)Nc1nc2ccc(Oc3ccc(NC(=O)Nc4cc(C(F)(F)F)ccc4F)cn3)cc2[nH]1 [GW681170] | 102.17 | 112.93 | 96.18 | 18.59% | 3.10% | 116.32 |  |  |  |  |  |  |  |  |
| Cc1n[nH]c2cc(Nc3ccnc(Nc4cccc(CN5CCOCC5)c4)n3)ccc12 [GW682569] | 93.91 | 112.57 | 83.50 | 9.15% | 6.60% | 85.02 |  |  |  |  |  |  |  |  |
| O=C(Nc1ccc(Oc2ccc3nc(NC(=O)c4ccco4)[nH]c3c2)cc1)Nc1cc(C(F)(F)F)ccc1F [GW683134] | 82.17 | 71.77 | 83.90 | 30.65% | 14.35% | 71.64 |  |  |  |  |  |  |  |  |
| COC(=O)Nc1nc2ccc(Oc3ccc(NC(=O)Nc4cc(C(F)(F)F)ccc4F)cc3)cc2n1C [GW692089] | 156.96 | 122.99 | 128.42 | 18.60% | 7.12% | 60.83 |  |  |  |  |  |  |  |  |
| COC(=O)Nc1nc2ccc(Oc3ccc(NC(=O)Nc4cc(C(F)(F)F)ccc4Cl)cc3)cc2[nH]1 [GW697465] | 71.39 | 100.12 | 89.89 | 30.84% | 5.88% | 70.87 |  |  |  |  |  |  |  |  |
| COC(=O)Nc1nc2ccc(Oc3ccc(NC(=O)Nc4cccc(SC)c4)cc3)cc2[nH]1 [GW697999] | 145.78 | 122.82 | 75.30 | 19.88% | 5.11% | 71.32 |  |  |  |  |  |  |  |  |
| COC(=O)Nc1nc2ccc(Oc3ccc(NC(=O)Nc4cc(F)ccc4F)cc3)cc2[nH]1 [GW701424] | 130.75 | 124.31 | 149.19 | 22.54% | 4.66% | 68.78 |  |  |  |  |  |  |  |  |
| CN1CCN(CCNc2nc3ccc(Oc4ccc(NC(=O)Nc5cc(C(F)(F)F)ccc5F)cc4)cc3[nH]2)CC1 [GW768504] | 103.13 | 113.95 | 155.92 | 12.94% | 4.72% | 72.38 |  |  |  |  |  |  |  |  |
| COc1ccc(C)c(Nc2ccnc(Nc3ccc(-c4cnc[nH]4)cc3)n2)c1 [GW784041] | 109.83 | 101.33 | 81.91 | 11.03% | 16.17% | 105.20 |  |  |  |  |  |  |  |  |
| Cc1c2ccc(N(C)c3ccnc(Nc4cccc(S(N)(=O)=O)c4)n3)cc2nn1Cc1ccccc1 [GW787226] | 91.24 | 90.69 | 80.53 | 15.06% | 8.93% | 121.46 |  |  |  |  |  |  |  |  |
| CN(c1ccc(NC(=O)Nc2cc(C(F)(F)F)ccc2F)cc1)c1ccnc(Nc2ccc(S(N)(=O)=O)cc2)n1 [GW809893] | 76.59 | 83.26 | 111.00 | 18.55% | 22.40% | 46.13 |  |  |  |  |  |  |  |  |
| CN(c1ccc2c(c1)nc(NCc1ccccc1)n2C)c1ccnc(Nc2ccc(CS(C)(=O)=O)cc2)n1 [GW811603] | 108.65 | 109.65 | 192.03 | 9.93% | 7.98% | 118.98 |  |  |  |  |  |  |  |  |
| CN(c1ccc2c(c1)nc(NCc1ccc(F)cc1)n2C)c1ccnc(Nc2ccc(CS(C)(=O)=O)cc2)n1 [GW813244] | 93.66 | 106.18 | 87.46 | 13.77% | 4.30% | 104.49 |  |  |  |  |  |  |  |  |
| CN1CCN(Cc2ccc(NC(=O)Nc3ccc(N(C)c4ccnc(Nc5ccc(CS(C)(=O)=O)cc5)n4)cc3)cc2)CC1 [GW827654] | 92.35 | 93.05 | 74.74 | 10.58% | 6.08% | 120.62 |  |  |  |  |  |  |  |  |
| CN(c1ccc(NC(=O)Nc2cccc(Cl)c2)cc1)c1ccnc(N)n1 [GW830707] | 86.00 | 87.81 | 94.92 | 9.81% | 11.00% | 115.77 |  |  |  |  |  |  |  |  |

| Compound | DQ Intensity (SH-SY5Y cells [1]; [4]) | DQ Spot (SH-SY5Y cells [1]; [5]) | AK (SH-SY5Y cells [2]; PKIS2 primary screening) | TFE3 % (endogenous TFE3; PKIS2 primary screening) | TFEB % (endogenous TFEB; PKIS2 primary screening) | Nuclear Count (SH-SY5Y cells [3]; PKIS2 primary screening) | DQ Intensity (SH-SY5Y cells [1]; PKIS2 primary screening) | DQ Spot (SH-SY5Y cells [1]; PKIS2 primary screening) | DQ Intensity (SH-SY5Y cells [1]; PKIS2 primary screen, DQ Red BSA intensity) | DQ Spot (SH-SY5Y cells [1]; PKIS2 primary screen, DQ Red BSA spot count) | AK (SH-SY5Y cells [2]; PKIS2 primary screen) | TFE3 % (endogenous TFE3; PKIS2 primary screen) | TFEB % (endogenous TFEB; PKIS2 primary screen) | Nuclear Count (SH-SY5Y cells [3]; PKIS2 primary screen) |
| --- | --- | --- | --- | --- | --- | --- | --- | --- | --- | --- | --- | --- | --- | --- |
| CN(c1ccc(NC(=O)N2CCN(CCCN3CCOCC3)CC2)cc1)c1ccnc(Nc2ccc(CS(C)(=O)=O)cc2)n1 [GW830899] | 91.97 | 98.21 | 75.66 | 11.27% | 7.11% | 123.35 |  |  |  |  |  |  |  |  |
| O=C(Nc1n[nH]c2cc(-c3ccccc3F)ccc12)C1CC1 [SB-733371] | 129.64 | 114.49 | 88.17 | 7.51% | 4.96% | 133.33 |  |  |  |  |  |  |  |  |
| O=C(Nc1n[nH]c2cc(-c3cccc(F)c3F)ccc12)C1CC1 [SB-733894] | 66.38 | 85.29 | 80.72 | 15.11% | 5.04% | 112.33 |  |  |  |  |  |  |  |  |
| O=C(Nc1n[nH]c2cc(-c3ccco3)ccc12)C1CC1 [SB-737447] | 79.02 | 97.06 | 119.40 | 9.47% | 10.40% | 114.46 |  |  |  |  |  |  |  |  |
| O=C(Nc1n[nH]c2nc(-c3ccco3)c(Br)cc12)c1ccc(CN2CCCC2)cc1 [SB-742352] | 92.66 | 91.08 | 95.96 | 19.33% | 7.90% | 100.71 |  |  |  |  |  |  |  |  |
| Cl.NS(=O)(=O)c1cccc(Nc2cc(-c3ccc(F)cc3)n[nH]2)c1 [UNC10112764A] | 118.54 | 103.52 | 125.30 | 14.81% | 1.30% | 80.49 |  |  |  |  |  |  |  |  |
| CCn1c(-c2nonc2N)nc2ccccc21 [UNC10112830A] |  |  | 85.29 | 10.17% | 9.19% | 114.37 | 143.39 | 111.62 |  |  |  |  |  |  |
| Cc1ccc(NC(=O)c2ccc(Cl)cc2)cc1-c1ccc(C(=O)Nc2ccncc2)cc1 [UNC10224985A] |  |  | 72.98 | 13.44% | 7.14% | 119.79 | 77.83 | 81.57 |  |  |  |  |  |  |
| O=C(NCC1CC1)c1ccc(-c2cc(C(=O)NC3CC3)ccc2F)cc1 [UNC10224986A] |  |  | 72.27 | 10.56% | 5.16% | 97.72 | 92.71 | 109.74 |  |  |  |  |  |  |
| COc1cccc(CC(=O)N2CCc3cc(-c4cn(C)c5ncnc(N)c45)ccc32)c1 [UNC10224987A] |  |  | 97.56 | 10.50% | 11.97% | 115.64 | 104.40 | 98.28 |  |  |  |  |  |  |
| NS(=O)(=O)CCc1cccc(Nc2nccc(-c3c(-c4cccc(NC(=O)c5c(F)cccc5F)c4)nn4ccccc34)n2)c1 [UNC10224988A] |  |  | 106.43 | 7.44% | 3.80% | 124.64 | 109.41 | 101.39 |  |  |  |  |  |  |
| Cl.O=S(=O)(c1cccc(F)c1)c1ccc(Nc2ncnc3cc(Br)sc23)cc1Cl [UNC10224990A] | 81.12 | 105.16 | 136.08 | 13.25% | 10.77% | 81.79 |  |  |  |  |  |  |  |  |
| CC(C)c1nc(-c2cccc(NS(=O)(=O)c3c(F)cccc3F)c2F)c(-c2ccnc(Nc3ccc(N4CCOCC4)nc3)n2)s1 [UNC10224991A] |  |  | 96.03 | 13.92% | 5.34% | 54.49 | 137.04 | 135.69 |  |  |  |  |  |  |
| Cc1ccc(NC(=O)Nc2ccccc2)cc1-c1ccc(C(=O)Nc2ccncc2)cc1 [UNC10224992A] |  |  | 119.72 | 19.70% | 8.91% | 89.66 | 74.41 | 94.75 |  |  |  |  |  |  |
| Nc1ncnc2occ(-c3ccc4c(c3)CCN4C(=O)Cc3cc(F)ccc3F)c12 [UNC10225000A] | 134.29 | 108.59 | 111.48 | 4.51% | 2.84% | 124.09 |  |  |  |  |  |  |  |  |
| Cc1c(Cn2c(C)nn3c(=O)cc(N4CCOC(C)C4)nc23)cccc1C(F)(F)F (stereo not drawn) [UNC10225005A] |  |  |  |  |  |  |  |  | 85.13 | 83.90 | 90.28 | 10.85% | 4.71% | 125.80 |
| Cc1ccc(NC(=O)c2ccnc(N3CCN(C)CC3)c2)cc1-c1ccc(C(=O)NCC2CC2)cc1 [UNC10225009A] |  |  | 154.31 | 12.99% | 4.01% | 101.80 | 132.78 | 99.28 |  |  |  |  |  |  |
